Drawing on US11319318B2, “Pyridinones and isoquinolinones as inhibitors of the bromodomain BRD9” (Boehringer Ingelheim International GmbH, priority 2015, dated 2022), this text covers IC50 for 53 compounds.

In the assay the target is T1, bromodomain of BRD9 (GST fusion) / acetylated histone H4 peptide (BET Bromodomain Ligand) (Homo sapiens, UniProt Q9H8M2).
T1 construct: A GST fusion protein of the bromodomain of BRD9; purchased BPS Biosciences #32519
T1 sequence (Q9H8M2 136-240 limits assumed): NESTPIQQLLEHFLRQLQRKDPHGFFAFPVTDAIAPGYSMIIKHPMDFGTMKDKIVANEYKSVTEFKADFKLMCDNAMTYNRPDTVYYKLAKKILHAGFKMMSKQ
Nature of the assay: BRD9-H4 Tetraacetylated Peptide Inhibition AlphaScreen. The assay is classed as binding. From the text:
BRD9-H4 Tetraacetylated Peptide Inhibition AlphaScreen
This assay is used to identify compounds which inhibit the interaction of the bromodomain of BRD9 with a tetra-acetylated peptide based on the sequence of histone H4 (termed the “BET Bromodomain ligand” as purchased from BPS Biosciences).
A GST fusion protein of the bromodomain of BRD9 and an acetylated histone H4 peptide (the “BET Bromodomain Ligand” are purchased as part of the BRD9 Inhibitor Screening Assay Kit at BPS Biosciences (Cat. Number: #32519)
AlphaScreen Beads (Perkin Elmer):
AlphaLISA Glutathione Acceptor Beads
AlphaScreen Streptavidin Donor Beads
Assay plates: Proxiplate-384 PLUS, white (PerkinElmer)
The assay is done in a darkened room below 100 Lux.
Compounds are dispensed onto assay plates using an Access Labcyte Workstation with the Labcyte Echo 550 from a DMSO solution. For the chosen highest concentration of 100 μM, 150 nl of compound solution are transferred from a 10 mM DMSO solution. A series of 11 concentrations is transferred for each compound at which each concentration is five-fold lower than the previous one (i.e. 100 μM, 20 μM, 4 μM, 0.8 μM, etc). DMSO is added such that every well has a total of 150 nl of DMSO.
15 μl of the resulting mix are added to the assay plates that contain 150 nl of the compounds. After 60 min at room temperature the signal is measured in a PerkinElmer Envision HTS Multilabel Reader using the AlphaScreen specifications from PerkinElmer.
Each plate contains negative controls where biotinylated BET Bromodomain Ligand and GST-BRD9 are left out and replaced by assay buffer. Negative control values are entered as low basis value when using the software GraphPad Prism for calculations.
In general terms: In Alpha technology, singlet oxygen from a donor bead excites a nearby acceptor bead.
As usually defined, the IC50 is the concentration at which inhibition is half-maximal. On to `CN1CCN(C(=O)c2ccc(-c3cc(C(F)F)c(=O)n(C)c3)cc2)CC1` [Compound I-27], for which the IC50 was 705 nM.

Regarding `Cc1ccc(-c2cc(C)c(=O)n(C3CC3)c2)cc1NS(C)(=O)=O` [Compound I-28], it took 5120 nM to reach half-maximal inhibition (IC50).

Compound `Cc1ccc(-c2cc(N)c(=O)n(C)c2)cc1NS(C)(=O)=O` [Compound I-29] yielded an IC50 of 4220 nM.

`Cc1cc(-c2ccc(C(=O)NC3CCN(C)CC3)cc2)cn(C)c1=O` [Compound I-30, 4-(1,5-Dimethyl-6-oxo-1,6-dihydro-pyridin-3-yl)-N-(1-methyl-piperidin-4-yl)-benzamide] registered an IC50 of 444 nM.

As for `CNc1cc(-c2ccc(C)c(NS(C)(=O)=O)c2)cn(C)c1=O` [Compound I-32, N-[2-Methyl-5-(1-methyl-5-methylamino-6-oxo-1,6-dihydro-pyridin-3-yl)-phenyl]-methanesulfonamide], the 50% inhibitory concentration (IC50) was 2030 nM.

For `Cc1cc(-c2cc(C)c(=O)n(C)c2)ccc1CN1CCNCC1` [Compound I-33, 1,3-Dimethyl-5-(3-methyl-4-piperazin-1-ylmethyl-phenyl)-1H-pyridin-2-one], the IC50 came to 22 nM.

Take `Cc1cc(-c2cc(C)c(=O)n(C)c2)ccc1CN1CCN(C)CC1` [Compound I-34]: the IC50 is 17 nM.

For `Cc1cc(-c2cc(C)c(=O)n(C)c2)ccc1CN(C)C` [Compound I-35], the 50% inhibitory concentration (IC50) turned out to be 47 nM.

Take `CNCc1ccc(-c2cc(C)c(=O)n(C)c2)cc1C` [Compound I-36]: the IC50 worked out at 42 nM.

`Cc1cc(-c2ccc(C(=O)N3CCNCC3)cc2)cn(C)c1=O` [Compound I-37, 1,3-Dimethyl-5-[4-(piperazine-1-carbonyl)-phenyl]-1H-pyridin-2-one] gave a 50% inhibitory concentration (IC50) of 34 nM.

As for `Cc1cc(-c2ccc(C(=O)N3CC4CCC3C4)cc2)cn(C)c1=O` (centres unmarked) [Compound I-38], the half-inhibitory concentration (IC50) turned out to be 256 nM.

Take `Cc1cc(-c2ccc(C(=O)N3CC(O)C3)cc2)cn(C)c1=O` [Compound I-39]: half-maximal inhibition (IC50) required 294 nM.

The compound `Cc1cc(-c2ccc(C(=O)N3CCCC3)cc2)cn(C)c1=O` [Compound I-40] registered an IC50 of 496 nM.

On to `Cc1ccc(-c2cc(C)c(=O)n(C)c2)cc1NCc1cccnc1` [Compound I-42, 1,3-Dimethyl-5-{4-methyl-3-[(pyridin-3-ylmethyl)-amino]-phenyl}-1H-pyridin-2-one], for which it took 470 nM to reach half-maximal inhibition (IC50).

`CN1CCN(C(=O)c2ccc(-c3cc(I)c(=O)n(C)c3)cc2)CC1` [Compound I-43, 3-Iodo-1-methyl-5-[4-(4-methyl-piperazine-1-carbonyl)-phenyl]-1H-pyridin-2-one] gave a concentration for half-maximal inhibition (IC50) of 65 nM.

As to `CN1CCN(C(=O)c2ccc(-c3cc(Br)c(=O)n(C)c3)cc2)CC1` [Compound I-44], the IC50 was determined as 508 nM.

In turn, `CN1CCN(C(=O)c2ccc(-c3cc(O)c(=O)n(C)c3)cc2)CC1` [Compound I-45, 3-Hydroxy-1-methyl-5-[4-(4-methyl-piperazine-1-carbonyl)-phenyl]-1H-pyridin-2-one] had a half-inhibitory concentration (IC50) of 2090 nM.

Take `Cc1cc(-c2ccc(C3(N)CC3)cc2)cn(C)c1=O` [Compound I-69]: the IC50 was 15 nM.

Compound `Cc1cc(-c2ccc(CN)cc2)cn(C)c1=O` [Compound I-78] came in with an IC50 of 130 nM.

`Cc1cc(-c2ccc(CN3CCNCC3)cc2)cn(C)c1=O` [Compound I-79] gave an IC50 of 60 nM.

In turn, `Cc1cc(-c2ccc(CN3CCN(C)CC3)cc2)cn(C)c1=O` [Compound I-88] returned a 50% inhibitory concentration (IC50) of 78 nM.

As for `COc1cc(-c2cc(C)c(=O)n(C)c2)ccc1C(=O)N1CCN(C)CC1` [Compound I-89, 5-[3-methoxy-4-(4-methyl-piperazine-1-carbonyl)-phenyl]-1,3-dimethyl-1H-pyridin-2-one], the IC50 was 70 nM.

`Cc1cc(-c2ccc(N)cc2)cn(C)c1=O` [Compound I-91] yielded a 50% inhibitory concentration (IC50) of 128 nM.

In turn, `Cc1cc(-c2ccc([C@H](C)N)cc2)cn(C)c1=O` [Compound I-93] came in with an IC50 of 112 nM.

In turn, `Cc1cc(-c2ccc([C@@H](C)N)cc2)cn(C)c1=O` [Compound I-94] returned an IC50 of 334 nM.

Regarding `Cc1cc(-c2ccc(C(=O)c3cncnc3)cc2)cn(C)c1=O` [Compound I-97], the concentration for half-maximal inhibition (IC50) amounted to 267 nM.

As for `Cc1cc(-c2ccc(C(=O)c3c(Cl)ncnc3Cl)cc2)cn(C)c1=O` [Compound I-100], the half-inhibitory concentration (IC50) is 50 nM.

In the case of `Cc1cc(-c2cccc(OC(F)F)c2)cn(C)c1=O` [Compound I-101], inhibition was half-maximal at 503 nM (IC50).

`COc1cc(-c2cc(C)c(=O)n(C)c2)ccc1C(=O)N1CCNCC1` [Compound I-158] gave a 50% inhibitory concentration (IC50) of 19 nM.

Regarding `Cc1cc(-c2cc(C)c(=O)n(C)c2)cc(C)c1C(=O)N1CCNCC1` [Compound I-160], the half-maximal inhibitory concentration (IC50) is 33 nM.

With `COc1cc(C(=O)N2CCNCC2)ccc1-c1cc(C)c(=O)n(C)c1` [Compound I-161], the IC50 is 32 nM.

The compound `Cc1cc(-c2cc(C)c(=O)n(C)c2)ccc1C(=O)N1CCNCC1` [Compound I-162] had a half-maximal inhibitory concentration (IC50) of 33 nM.

Compound `CCS(=O)(=O)Cc1cc(-c2cc(C)c(=O)n(C)c2)ccc1C(=O)N1CCNCC1` [Compound I-169, 5-[3-Ethanesulfonylmethyl-4-(piperazine-1-carbonyl)-phenyl]-1,3-dimethyl-1H-pyridin-2-one] gave a half-inhibitory concentration (IC50) of 29 nM.

In turn, `Cc1cc(-c2ccc(C(=O)N3CCNCC3)c(CS(C)(=O)=O)c2)cn(C)c1=O` [Compound I-170] yielded an IC50 of 29 nM.

With `Cc1cc(-c2ccc(C(=O)N3CCN(C)CC3)c(CS(C)(=O)=O)c2)cn(C)c1=O` [Compound I-171], the half-maximal inhibitory concentration (IC50) worked out at 103 nM.

Compound `CCS(=O)(=O)Cc1cc(-c2cc(C)c(=O)n(C)c2)ccc1C(=O)N(C)C` [Compound I-172] registered an IC50 of 294 nM.

`COc1cc(C(=O)N2CCN(C)CC2)ccc1-c1cc(C)c(=O)n(C)c1` [Compound I-173, 5-[2-Methoxy-4-(4-methyl-piperazine-1-carbonyl)-phenyl]-1,3-dimethyl-1H-pyridin-2-one]: the IC50 stood at 151 nM.

In turn, `Cc1cc(-c2cc(C)c(=O)n(C)c2)ccc1C(=O)N1CCN(C)CC1` [Compound I-174] displayed an IC50 of 106 nM.

For `Cc1cc(-c2ccc(C(=O)N3CCN(C)CC3)c3ccccc23)cn(C)c1=O` [Compound I-175], half-maximal inhibition (IC50) required 135 nM.

For `Cc1cc(-c2ccc(C(=O)N3CCN(C)CC3)c(Cl)c2)cn(C)c1=O` [Compound I-176], the IC50 is 204 nM.

With `Cc1cc(-c2ccc(C(=O)N3CCN(C)CC3)c(O)c2)cn(C)c1=O` [Compound I-188, 5-[3-Hydroxy-4-(4-methyl-piperazine-1-carbonyl)-phenyl]-1,3-dimethyl-1H-pyridin-2-one], the IC50 turned out to be 270 nM.

`Cc1cc(-c2ccc(CN3C[C@@H]4C[C@H]3CN4)cc2)cn(C)c1=O` [Compound I-189, 5-{4-[(S)-1-(2,5-Diaza-bicyclo[2.2.1]hept-2-yl)methyl]-phenyl}-1,3-dimethyl-1H-pyridin-2-one] displayed a half-maximal inhibitory concentration (IC50) of 23 nM.

For `COc1cc(-c2cc(C)c(=O)n(C)c2)ccc1CN1CCNCC1` [Compound I-190, 5-(3-methoxy-4-piperazin-1-ylmethyl-phenyl)-1,3-dimethyl-1H-pyridin-2-one], the concentration for half-maximal inhibition (IC50) turned out to be 21 nM.

In turn, `COc1cc(-c2cc(C)c(=O)n(C)c2)ccc1CN1CCN(C)CC1` [Compound I-191, 5-[3-methoxy-4-(4-methyl-piperazin-1-ylmethyl)-phenyl]-1,3-dimethyl-1H-pyridin-2-one] displayed a half-maximal inhibitory concentration (IC50) of 3 nM.

The compound `CNCc1ccc(-c2cc(C)c(=O)n(C)c2)cc1OC` [Compound I-192] came in with a concentration for half-maximal inhibition (IC50) of 33 nM.

For `CN1CCN(C(=O)c2ccc(-c3cn(C)c(=O)c4ccccc34)cc2)CC1` [II-4], the half-maximal inhibitory concentration (IC50) was determined as 86 nM.

As for `CCn1cc(-c2ccc(C(=O)N3CCN(C)CC3)cc2)c2ccccc2c1=O` [II-15], the IC50 is 398 nM.

Take `CCn1cc(-c2ccc(C(=O)N(C)C)cc2)c2ccccc2c1=O` [II-16]: the IC50 came to 983 nM.

For the compound `CN1CCN(C(=O)c2ccc(-c3cn(C4CC4)c(=O)c4ccccc34)cc2)CC1` [II-18], the concentration for half-maximal inhibition (IC50) is 984 nM.

As for `Cc1ccc(-c2cn(C)c(=O)c3cccc(F)c23)cc1NS(C)(=O)=O` [II-27], half-maximal inhibition (IC50) was put at 1160 nM.

In turn, `Cc1ccc(-c2cn(C)c(=O)c3cccc(C)c23)cc1NS(C)(=O)=O` [II-28, N-[5-(2,5-Dimethyl-1-oxo-1,2-dihydro-isoquinolin-4-yl)-2-methyl-phenyl]-methanesulfonamide] registered an IC50 of 923 nM.

`Cc1ccc(-c2cn(C)c(=O)c3ccccc23)cc1NS(C)(=O)=O` [II-29] had a half-maximal inhibitory concentration (IC50) of 239 nM.

In turn, `CCS(=O)(=O)Nc1cc(-c2cn(C)c(=O)c3ccccc23)ccc1C` [II-35, Ethanesulfonic acid [2-methyl-5-(2-methyl-1-oxo-1,2-dihydro-isoquinolin-4-yl)-phenyl]-amide] returned a concentration for half-maximal inhibition (IC50) of 293 nM.
